Laboratory results from patent publication EP1421935A1 (Casini, Angela, priority 2002, dated 2004).
Values after ≈ are worked out from the molar mass of the structure shown. Where two headings read alike, the source gives them in different places.

Assays:
[1] = transcorneal penetration of drugs (in vitro corneal permeability); conditions: rate constant of transfer across excised rabbit cornea, pH 7.4; for kin x 10^3 (hr^-1) No epithelium: denuded epithelium; for kin x 10^3 (hr^-1) Cornea intact: intact epithelium
Method: The determination of transcorneal penetration of drugs is performed as follows. […] Excised rabbit corneas with either intact or denuded epithelium are used in these experiments. The pH is 7.4 and exposed area is 1.2 cm^2. Concentrations of drug of 40 - 2000 µM are placed in the epithelial chamber and samples of fluid are collected from the endothelial chamber at different intervals, up to 4 hr.

hCA I = hCA I (Homo sapiens, UniProt P00915); assay: CA inhibition, esterase method (4-nitrophenylacetate hydrolysis)
Sequence of hCA I (P00915 whole entry): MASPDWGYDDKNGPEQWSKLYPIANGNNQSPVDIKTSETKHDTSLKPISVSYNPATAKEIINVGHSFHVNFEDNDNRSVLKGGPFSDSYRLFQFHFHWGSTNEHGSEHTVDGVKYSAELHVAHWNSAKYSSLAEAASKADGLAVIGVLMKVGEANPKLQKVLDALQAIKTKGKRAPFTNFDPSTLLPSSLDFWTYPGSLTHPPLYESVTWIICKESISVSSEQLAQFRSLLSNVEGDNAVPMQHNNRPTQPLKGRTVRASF
Method: (§1) Stock solutions of inhibitor (1 mM) are prepared in distilled-deionized water with 10-20% (v/v) DMSO (which is not inhibitory at these concentrations) and dilutions up to 0.01 nM are done thereafter with distilled-deionized water. Inhibitor and enzyme solutions are preincubated together for 10 min at room temperature prior to assay, in order to allow for the formation of the E-I complex.

hCA II = hCA II (Homo sapiens, UniProt P00918); assay: as above
Method: as §1

bCA IV = biological target: T1, bCA IV (Bos taurus, UniProt Q95323); assay: as above
T1 sequence (Q95323 19-284): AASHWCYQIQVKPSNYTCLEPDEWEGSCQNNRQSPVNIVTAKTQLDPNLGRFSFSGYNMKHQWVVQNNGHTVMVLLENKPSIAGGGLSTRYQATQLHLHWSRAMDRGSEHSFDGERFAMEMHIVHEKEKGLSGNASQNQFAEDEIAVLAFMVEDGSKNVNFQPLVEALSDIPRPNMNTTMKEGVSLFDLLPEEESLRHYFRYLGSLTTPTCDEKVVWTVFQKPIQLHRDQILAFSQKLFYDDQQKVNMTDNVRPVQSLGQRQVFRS
Method: as §1

[2] = chloroform-buffer partition coefficient; assay type: physicochemical; conditions: pH 7.4 phosphate buffer, B compounds as sodium salts
Method: The determination of partition coefficient is performed as follows. Chloroform - buffer partition coefficients are obtained by equilibrating the test compound between chloroform and 0.1-ionic strength pH 7.4 phosphate buffer. The concentration in each phase is determined by UV spectrophotometry or HPLC.

[3] = solubility in aqueous buffer (UV of saturated solution); conditions: phosphate buffer, 25 °C, pH 7.4, aqueous buffer, thermodynamic from solid
Method: The determination of solubility in aqueous buffer is performed as follows. […] The UV absorption maximum of each compound is determined (with a Cary 3 spectrophotometer) eventually diluting the solution (with MeOH) as necessary. […] The obtained saturated solution is filtered in order to remove solid compound through a Millipore 0.45 µm filter and scanned by UV at the wavelength of the absorption maximum previously determined. Total solubility is determined by the relationship: C' = A'C/A, where C = concentration of standard solution (mg/mL); A = absorbance of standard solution; A' = absorbance of the saturated solution; C' = concentration of the saturated solution (mg/mL).

[4] = tested on: IOP of normotensive rabbits; assay: tonometric measurement of IOP after topical administration; assay type: in vivo, New Zealand albino rabbits; conditions: topical 2% solution (Fig. 2)
Method: Tonometric measurement of IOP are performed as follows.
Adult male New Zealand albino rabbits weighing 3-3.5 kg are used in the experiments. Three animals are used for each inhibitor studied. The experimental procedures conform to the Association for Research in Vision and Ophthalmology Resolution on the use of animals. The rabbits are kept in individual cages with food and water provided ad libitum and maintained on a 12 h light/dark cycle in a temperature controlled room, at 22-26 °C. Solutions and suspensions of inhibitors (2 %, by weight, as hydrochlorides, or sodium carboxylates) are made in distilled deionized water. The pH of these solutions is in the range of 5.5 - 7.4.
IOP is measured using a Digilab 30R pneumatonometer (BioRad, Cambridge, MA, USA) as described by Maren et al. (Maren et al., Exp. Eye Res. 55:73-79, 1992; Brechue et al., Invest. Ophthalmol. Vis. Sci. 34:2581-2587,1993). The pressure readings are matched with two-point standard pressure measurements at least twice each day using a Digilab Calibration verifier. All IOP measurements are done by the same investigator with the same tonometer. One drop of 0.2 % oxybuprocaine hydrochloride (novesine, Sandoz) diluted 1:1 with saline is instilled in each eye immediately before each set of pressure measurements. IOP is measured three times at each time interval, and the means reported. IOP is measured first immediately before drug administration, then at 30 min after the instillation of the pharmacological agent, and then each 30 minutes for a period of 4-6 hours. For all IOP experiments drug is administered to only one eye, leaving the contralateral eye as an untreated control. The ocular hypotensive activity is expressed as the average difference in IOP between the treated and control eye, in this way minimizing the diurnal, seasonal and inter-individual variations commonly observed in the rabbit (Id.). All data are expressed as mean ± SE. Ocular hypertension is elicited in the right eye of albino rabbits by the injection of α-chymotrypsin (from Sigma) as described by Sugrue et al. (Sugrue et al., Br. J. Pharmacol. 99:59-64, 1990). The IOP of operated animals is checked after approximately four weeks, and animals with an elevated pressure of 30-36 mm Hg are used at least one month after the injection of α-chymotrypsin.
In vivo IOP lowering experiments are done in normotensive and glaucomatous rabbits, with many of the new compounds reported here, due to their strong CA II and CA IV inhibitory properties, such as B7, B10-B13, B15, B18-B22, B25, B27, B28, B33, B37, and A40. […] Measurements are at 30, 60 and 90 min after administration Table 3.

| Compound | Ki (hCA I) [nM] | Ki (hCA II) [nM] | Ki (bCA IV) [nM] | also measured |
| --- | --- | --- | --- | --- |
| CC(=O)Nc1nnc(S(N)(=O)=O)s1 [Acetazolamide, acetazolamide, reference compound] |  |  |  | kin x 10^3 (hr^-1) No epithelium [1]: 7.0 hr^-1; kin x 10^3 (hr^-1) Cornea intact [1]: 0.37 hr^-1 |
| NS(=O)(=O)c1ccc(CNC(=S)NCc2ccccn2)cc1 [B7] | 124 | 43 | 74 |  |
| NS(=O)(=O)c1ccc(CNC(=S)NCCc2ccccn2)cc1 [B8] | 120 | 38 | 75 |  |
| NS(=O)(=O)c1ccc(CNC(=S)NCCc2ccccc2)cc1 [B9] | 126 | 39 | 76 |  |
| NS(=O)(=O)c1ccc(CNC(=S)NCCc2c[nH]cn2)cc1 [B10, 1-(4-Sulfamoylphenylmethyl)-3-[(1H-imidazol)-4-yl-ethyl]-thiourea] | 88 | 30 | 52 |  |
| NS(=O)(=O)c1ccc(CNC(=S)Nc2ccccc2C(=O)O)cc1 [B11] | 54 | 11 | 23 | Log P [2]: 1.238; solubility [3]: 41 mM (≈ 15 mg/mL); kin x 10^3 (hr^-1) No epithelium [1]: 8.3 hr^-1; kin x 10^3 (hr^-1) Cornea intact [1]: 2.9 hr^-1 |
| NS(=O)(=O)c1ccc(CNC(=S)Nc2cccc(C(=O)O)c2)cc1 [B12] | 38 | 10 | 29 | Log P [2]: 1.313; solubility [3]: 40 mM (≈ 14.6 mg/mL); kin x 10^3 (hr^-1) No epithelium [1]: 8.7 hr^-1; kin x 10^3 (hr^-1) Cornea intact [1]: 3.0 hr^-1 |
| NS(=O)(=O)c1ccc(CNC(=S)NCC(=O)O)cc1 [B14, 1-(4-Sulfamoylphenylmethyl)-3-(carboxymethyl)-thiourea] | 56 | 17 | 34 |  |
| CC(NC(=S)NCc1ccc(S(N)(=O)=O)cc1)C(=O)O (stereo not drawn) [B15] | 48 | 10 | 29 |  |
| NS(=O)(=O)c1ccc(CNC(=S)NCCC(=O)O)cc1 [B16] | 39 | 8 | 28 |  |
| NS(=O)(=O)c1ccc(CNC(=S)NCCCC(=O)O)cc1 [B17] | 40 | 10 | 27 |  |
| NS(=O)(=O)c1ccc(CNC(=S)NC(C(=O)O)c2ccccc2)cc1 (stereo not drawn) [B18] | 40 | 5 | 12 | Log P [2]: 3.721; solubility [3]: 59 mM (≈ 22.4 mg/mL); kin x 10^3 (hr^-1) No epithelium [1]: 12.0 hr^-1; kin x 10^3 (hr^-1) Cornea intact [1]: 5.6 hr^-1 |
| CC(O)C(NC(=S)NCc1ccc(S(N)(=O)=O)cc1)C(=O)O (stereo not drawn) [B21] | 24 | 2 | 13 |  |
| CSCCC(NC(=S)NCc1ccc(S(N)(=O)=O)cc1)C(=O)O (stereo not drawn) [B23] | 19 | 3 | 10 |  |
| CC(C)C(NC(=S)NCc1ccc(S(N)(=O)=O)cc1)C(=O)O (stereo not drawn) [B24] | 20 | 4 | 9 |  |
| CC(C)CC(NC(=S)NCc1ccc(S(N)(=O)=O)cc1)C(=O)O (stereo not drawn) [B25] | 17 | 3 | 11 |  |
| CCC(C)C(NC(=S)NCc1ccc(S(N)(=O)=O)cc1)C(=O)O (stereo not drawn) [B26, 1-(4-Sulfamoylphenylmethyl)-3-(1-carboxy-2-methyl-butyl)-thiourea] | 18 | 4 | 8 |  |
| NS(=O)(=O)c1ccc(CNC(=S)NC(CC(=O)O)C(=O)O)cc1 (stereo not drawn) [B27] | 27 | 7 | 15 |  |
| NC(=O)CC(NC(=S)NCc1ccc(S(N)(=O)=O)cc1)C(=O)O (stereo not drawn) [B28] | 22 | 5 | 9 | IOP returns to baseline values after ... from administration [4]: 5 to 6 h |
| NS(=O)(=O)c1ccc(CNC(=S)NC(CCC(=O)O)C(=O)O)cc1 (stereo not drawn) [B29] | 39 | 10 | 23 |  |
| NC(=O)CCC(NC(=S)NCc1ccc(S(N)(=O)=O)cc1)C(=O)O (stereo not drawn) [B30] | 36 | 9 | 21 |  |

| Compound | Ki (hCA I) [nM] | Ki (hCA II) [nM] | Ki (bCA IV) [nM] | also measured |
| --- | --- | --- | --- | --- |
| NS(=O)(=O)c1ccc(CNC(=S)N2CCCC2C(=O)O)cc1 (stereo not drawn) [B31] | 89 | 21 | 55 |  |
| NS(=O)(=O)c1ccc(CNC(=S)NC(Cc2cnc[nH]2)C(=O)O)cc1 (stereo not drawn) [B32] | 33 | 6 | 14 |  |
| NS(=O)(=O)c1ccc(CNC(=S)NC(Cc2ccccc2)C(=O)O)cc1 (stereo not drawn) [B33, 1-(4-Sulfamoylphenylmethyl)-3-(1-carboxy-2-phenyl-ethyl)-thiourea] | 27 | 5 | 14 |  |
| NS(=O)(=O)c1ccc(CNC(=S)NC(Cc2ccc(O)cc2)C(=O)O)cc1 (stereo not drawn) [B34] | 24 | 3 | 9 |  |
| NS(=O)(=O)c1ccc(CNC(=S)NC(Cc2ccc(O)c(O)c2)C(=O)O)cc1 (stereo not drawn) [B35] | 30 | 6 | 14 |  |
| NS(=O)(=O)c1ccc(CNC(=S)NC(Cc2c[nH]c3ccccc23)C(=O)O)cc1 (stereo not drawn) [B36] | 42 | 9 | 17 |  |
| NCCCCC(NC(=S)NCc1ccc(S(N)(=O)=O)cc1)C(=O)O (stereo not drawn) [B37] | 73 | 10 | 34 |  |
| N=C(N)NCCCC(NC(=S)NCc1ccc(S(N)(=O)=O)cc1)C(=O)O (stereo not drawn) [B38] | 103 | 18 | 56 |  |
| NS(=O)(=O)c1ccc(CNC(=S)NCC(=O)NCC(=O)O)cc1 [B39] | 50 | 13 | 26 |  |
| NS(=O)(=O)c1ccc(CNC(=S)NC(Cc2cnc[nH]2)C(=O)NCC(=O)O)cc1 (stereo not drawn) [B41] | 12 | 1 | 5 |  |
| NS(=O)(=O)c1ccc(CNC(=S)NC(Cc2cnc[nH]2)C(=O)NC(Cc2ccccc2)C(=O)O)cc1 (stereo not drawn) [B42] | 19 | 2 | 7 |  |
| CC(NC(=S)NCc1ccc(S(N)(=O)=O)cc1)C(=O)NC(Cc1ccccc1)C(=O)O (stereo not drawn) [B43] | 21 | 3 | 10 |  |
| CC(C)CC(NC(=S)NCc1ccc(S(N)(=O)=O)cc1)C(=O)NCC(=O)O (stereo not drawn) [B44] | 20 | 4 | 11 |  |
| NS(=O)(=O)c1ccc(CNC(=S)NC(CC(=O)O)C(=O)NC(CC(=O)O)C(=O)O)cc1 (stereo not drawn) [B45] | 37 | 12 | 25 |  |
| NS(=O)(=O)c1ccc(CNC(=S)N2CCCC2C(=O)NCC(=O)NCC(=O)O)cc1 (stereo not drawn) [B46] | 22 | 3 | 8 |  |
| NS(=O)(=O)c1ccc(CNC(=S)NC(CC(=O)O)C(=O)NC(CC(=O)O)C(=O)NC(CC(=O)O)C(=O)NC(CC(=O)O)C(=O)O)cc1 (stereo not drawn) [B47] | 51 | 9 | 24 |  |
| NS(=O)(=O)c1ccc(CN=C=S)cc1 [B, 4-isothiocyanatomethyl-benzenesulfonamide] | 4300 | 162 | 270 |  |
| NS(=O)(=O)c1cc(Cl)c(Cl)c(S(N)(=O)=O)c1 [Dichlorophenamide 6, dichlorophenamide, reference compound] |  |  |  | Ki (bCA IV; read-out: KI (nM) bCA IV, From bovine lung microsomes, by the esterase method, pH 7.40, 25°C): 380 nM |
| CCOc1ccc2nc(S(N)(=O)=O)sc2c1 [Ethoxzolamide, ethoxzolamide, reference compound] |  |  |  | Log P [2]: 1.40; solubility at 3 h [3]: 0.04 mM (≈ 0.0103 mg/mL) |
| CC(=O)/N=c1/sc(S(N)(=O)=O)nn1C [Methazolamide, methazolamide, reference compound] |  |  |  | Log P [2]: 0.06; kin x 10^3 (hr^-1) No epithelium [1]: 13 hr^-1; kin x 10^3 (hr^-1) Cornea intact [1]: 1.90 hr^-1 |
